Experimental data published in PubChem BioAssay AID743394 (Broad Institute, 2014).
Where “and” joins values, the source holds several entries; their conditions need not be identical. Identical values can stand only once. Calls of active or inactive are those of the source.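 The calls were made as follows: active = 40% activation versus positive control reached by fitted dose-response curve at or below highest valid tested dose; inconclusive = poor fit quality, or flat fit with activation between 30% and 70%; inactive = the rest.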

Columns and labels:
[1] = tested on: 68-5-11 mouse fibroblast XiGFP reporter, % GFP-positive imaging, 3 d; test: Xi-linked GFP reactivating small molecules – imaging, 68-5-11 mouse fibroblasts, cherry-pick, dose response (AID 743394); conditions: cells co-treated with 5-aza-dC sensitizer;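 also: sensitizer 5-aza-dC present in the wells at 0.5 mM final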
[2] = as above; conditions: 68-5-11 mouse fibroblast XiGFP reporter, % GFP-positive imaging, 3 d
[3] = at 19.5 µM (top of the series), cells co-treated with 5-aza-dC sensitizer, scaled: neutral wells 0, ellipticine wells 100
[4] = at 21 µM (top of the series), cells co-treated with 5-aza-dC sensitizer, scaled: neutral wells 0, ellipticine wells 100

Row | SMILES | AC40 [1] | activation [2, 3] | further results
1 | C/C(=N\Nc1ncnc2sc(C)c(C)c12)c1ccccn1 | 0.784 µM |  | 
2 | O=C1c2cccc3c([N+](=O)[O-])ccc(c23)C(=O)N1Cc1cccnc1 | 10.1 µM |  | 
3 | CCN(CC)c1ccc(/C=C/c2cc(-c3ccccc3)c3ccccc3n2)cc1 | 1.68 µM |  | 
4 | O=[N+]([O-])c1ccc(/C=C/C2=NN(c3ccccc3)C(c3ccco3)C2)cc1 (stereo not drawn) | 1.81 µM |  | 
5 | COc1cc(/C=C/C(=O)c2ccc([N+](=O)[O-])o2)ccc1O | 10.3 µM |  | 
6 | CC(=O)Oc1cccc(N2C(=O)c3cccc4c([N+](=O)[O-])ccc(c34)C2=O)c1 | 5.28 µM |  | 
7 | CC(=O)Nc1cc2c3c(cccc3c1)-c1ccccc1-2 | 2.56 µM |  | 
8 | O=c1oc2cc(O)ccc2cc1-c1nc2c(s1)CCc1ccccc1-2 | 2.79 µM |  | 
9 | CC[n+]1c(/C=C/C=C/N(C(C)=O)c2ccccc2)sc2cc(OC)ccc21 | 1.16 µM |  | 
10 | COc1cc(N2CCCC2)c(OC)cc1/C=C1/NC(=S)NC1=O | > 19.5 µM (inactive) |  | 
11 | CCN1/C(=C/c2ccc3cc(C)ccc3[n+]2CC)Sc2ccccc21 | 0.228 µM |  | 
12 | CC(C)CCN1CCN(Cc2cc3ccccc3[nH]2)CC1CCO (stereo not drawn) | 16.4 µM |  | 
13 | Cc1c2c(cc3c1[nH]c1ccccc13)C=NCC2 | 9.27 µM |  | 
14 | C[n+]1c2cc(N)ccc2cc2ccc(N)cc21 | 0.297 µM and 0.116 µM |  | 
15 | CCN1/C(=C/c2ccc3cc(C)ccc3[n+]2CC)Sc2cc(C)c(C)cc21 | 1.29 µM |  | 
16 | CN1/C(=C/C=C(C#N)C#N)C(C)(C)c2ccccc21 | 11.3 µM |  | 
17 | Cc1ccc2c(c1)c(/C=C/c1cc[n+](C)cc1)c(C)n2C | 2.65 µM |  | 
18 | CC(=O)c1ccc(C(=O)Nc2sc3c(c2C(N)=O)CCN(Cc2ccccc2)C3)cc1 | > 19.5 µM (inactive) |  | 
19 | Oc1ccc(/C=N/Nc2ccnc3cc(Cl)ccc23)c(O)c1 | > 19.5 µM (inactive) |  | 
20 | CC1=NN(c2nc(N)nc(/C(C#N)=C/c3ccc([N+](=O)[O-])o3)n2)C(C)(C)C1 | 2.18 µM |  | 
21 | Nc1c(C(=O)c2ccccc2)sc2nsc(SCCN3CCCC3)c12 | 8.3 µM |  | 
22 | COc1ccc(/C=C/C(=O)c2ccc([N+](=O)[O-])o2)cc1OC | 14.3 µM |  | 
23 | COc1ccc(C(=O)c2sc3nc(C)cc(-c4cccs4)c3c2N)cc1 | 7.57 µM |  | 
24 | Cc1ccc2[nH]c(C)c(/C=C/c3cc[n+](C)cc3)c2c1 | 8.58 µM |  | 

Row | SMILES | AC40 [1] | activation [2, 3] | further results
25 | O=CNc1ccc2c3c(cccc13)-c1ccccc1-2 | 5.85 µM |  | 
26 | CCN1/C(=C/C=C/c2oc3ccc(-c4ccccc4)cc3[n+]2CC)Oc2ccc(-c3ccccc3)cc21 | 0.00228 µM |  | 
27 | CCN(CC)c1ccc2cc(C(=O)c3cccs3)c(=O)oc2c1 | 5.34 µM |  | 
28 | COc1cc2c3nnc(-c4ccc(F)cc4)c-3cn(Cc3cccc(C)c3)c2cc1OC | 3.74 µM |  | 
29 | O=[N+]([O-])c1ccc(N2N=C(c3ccccc3)CC2c2ccccc2O)cc1 (stereo not drawn) | 12.4 µM |  | 
30 | N#C/C(=C/c1ccc(N2CCCCC2)o1)C(=O)Nc1ccc2ccccc2c1 | 0.297 µM |  | 
31 | CN(C)c1ccc(/C=C(/C#N)C(=O)NCc2ccccc2)o1 | 10.3 µM |  | 
32 | O=C(NCc1ccccc1)c1cccc2c1C(=O)c1ccc(/C=C/c3ccccc3)cc1S2(=O)=O | 8.5 µM |  | 
33 | CCN1C(=O)[C@@H]2Cc3c([nH]c4ccccc34)C(c3cc(OC)c(OC)c(OC)c3)N2C1=S (stereo partly drawn) | > 19.5 µM (inactive) |  | 
34 | O=[N+]([O-])c1ccc(N/N=C/c2ccc[nH]2)cc1 | > 19.5 µM (inactive) |  | 
35 | Cc1cc(N/N=C/c2ccc([N+](=O)[O-])o2)nc2ccccc12 | 8.4 µM |  | 
36 | CCCCN(C)C1=CC2=CC(=C(C#N)C#N)CCC2CC1 (stereo not drawn) | 2.86 µM |  | 
37 | COc1cc(/C=C/c2ccc3cccc(O)c3n2)c(Br)cc1O | 14 µM |  | 
38 | CN(C)CCCN1C(=O)c2cccc3c([N+](=O)[O-])ccc(c23)C1=O | 6.06 µM |  | 
39 | CCN(CC)c1ccc2cc(-c3nc(-c4ccc(OC)cc4)cs3)c(=O)oc2c1 | 0.057 µM |  | 
40 | CCN(CC)C1=CC2=CC(=C(C#N)C#N)CCC2CC1 (stereo not drawn) | 8.77 µM |  | 
41 | CC(=O)[C@@]1(O)Cc2c(O)c3c(c(O)c2[C@H](O[C@H]2C[C@H](N)[C@H](O)[C@H](C)O2)C1)C(=O)c1ccccc1C3=O | 1.09 µM |  | 
42 | Cc1cccc(NC(=O)/C=C/c2ccc([N+](=O)[O-])s2)c1 | 1.58 µM |  | 
43 | CC(C)(C)NC(=S)N/N=C\c1ccc(-c2ccc([N+](=O)[O-])cc2)o1 | 5.94 µM |  | 
44 | COc1cc2c3nnc(-c4ccccc4)c-3cn(Cc3ccccc3F)c2cc1OC | 1.27 µM |  | 
45 | Nc1ccc2c3c(cccc13)-c1ccccc1-2 | 1.04 µM |  | 
46 | COc1ccc(C(=O)c2sc3nc(C)cc(-c4cccs4)c3c2N)cc1OC | > 19.5 µM (inactive) |  | 
47 | COc1ccc(-[n+]2c(C)cc(/C=C3\Sc4ccccc4N3C)cc2C)cc1 | 0.22 µM |  | 
48 | CC(C)CCN1C(=O)c2cccc3c(N)ccc(c23)C1=O | 7.46 µM |  | 

Row | SMILES | AC40 [1] | activation [2, 3] | further results
49 | CCN1CCc2c(sc(NC(=O)c3ccc(S(=O)(=O)N(CC)c4ccccc4)cc3)c2C(N)=O)C1 | > 19.5 µM (inactive) |  | 
50 | Cc1ccc(C(=O)c2oc3ccccc3c2NC(=O)c2cc(-c3ccccc3O)n[nH]2)cc1 | 12.8 µM |  | 
51 | COc1cc2c3nnc(-c4ccc(F)cc4)c-3cn(Cc3ccccc3F)c2cc1OC | 1.57 µM |  | 
52 | COc1ccc(NC(=O)C(C)N2C(=O)c3ccccc3C2=O)c(OC)c1 (stereo not drawn) | 9.06 µM |  | 
53 | Cc1nnc(N2C(=O)c3cccc4c([N+](=O)[O-])ccc(c34)C2=O)s1 | > 19.5 µM (inactive) |  | 
54 | CCOC(=O)Cn1c(=NC(=O)c2ccc([N+](=O)[O-])s2)sc2ccccc21 | 7.3 µM |  | 
55 | Cn1cc(C2=C(c3ccc(Cl)cc3Cl)C(=O)NC2=O)c2ccccc21 | 6.16 µM |  | 
56 | Cn1cc(/C=C/c2cc[n+](C)cc2)c2cc(Cl)ccc21 | > 19.5 µM (inactive) |  | 
57 | CCC(CO)[n+]1c(C)cc(/C=C2\Sc3ccccc3N2Cc2ccccc2)cc1C (stereo not drawn) | 1.55 µM |  | 
58 | Cc1ccc2cc3c(N)c(C(=O)Nc4c(C)[nH]c(=O)[nH]c4=O)sc3nc2c1 | 13.2 µM |  | 
59 | N#C/C(=C\c1ccc(N2CCCCC2)o1)C(=O)Nc1cccc(Br)c1 | 0.406 µM |  | 
60 | Cc1cc(C)cc(NC(=O)/C=C/c2ccc([N+](=O)[O-])s2)c1 | 1.7 µM |  | 
61 | Nc1c(Br)cc2c3c(cccc13)-c1ccccc1-2 | 12.6 µM |  | 
62 | C[C@@H]1CN([C@H](C)CO)C(=O)c2cc(NS(=O)(=O)c3ccccc3)ccc2O[C@@H](C)CCCCO[C@@H]1CN(C)Cc1ccc2c(c1)OCO2 |  | 0% (inactive) | 
63 | Brc1cccc(CNCC2CCCO2)c1 (stereo not drawn) |  | 0.116% (inactive) | 
64 | O=C(c1ccc(Br)cc1)c1cc([N+](=O)[O-])ccc1N1CCOCC1 |  | 4.21% (inactive) | 
65 | CCCCC(CCC(=O)Nc1ccn(-c2ccccc2)n1)C(=O)O (stereo not drawn) |  | 0% (inactive) | 
66 | CCOC(=O)c1c(C)[nH]c(N=Nc2ccc(OC)cc2)c1C |  | 1.01% (inactive) | 
67 | CCN(CC(=O)Nc1sc2c(c1C#N)CCCC2)CC(=O)NC1CCS(=O)(=O)C1 (stereo not drawn) |  | -0.032% (inactive) | 
68 | CN(Cc1nc(CCc2ccccc2)no1)Cc1cccs1 |  | -0.037% (inactive) | 
69 | Cc1noc(C)c1NC(=O)N[C@H]1CC[C@H](CC(=O)N2CCN(C)CC2)O[C@H]1CO |  | 0.116% (inactive) | 
70 | Cc1ccc(-c2ccc3c(c2)O[C@@H](CN(C)Cc2ccncc2)[C@@H](C)CN([C@@H](C)CO)S3(=O)=O)cc1 |  | 0% (inactive) | 
71 | CCN1C(=O)C(=Cc2cccc(OC)c2Oc2ccc([N+](=O)[O-])cc2[N+](=O)[O-])SC1=S |  | -0.008% (inactive) | 
72 | Cc1ccc2[nH]c(C(=O)O)c(NC(=O)[C@@H]3C[C@@H]3c3ccccc3)c2c1 |  | -0.035% (inactive) | 

Row | SMILES | AC40 [1] | activation [2, 3] | further results
73 | COc1ccc(C(=O)Nc2c(F)c(F)c(F)c(F)c2F)cc1OC |  | -0.047% (inactive) | 
74 | CC1C=NC(S(=O)(=O)N2CC[C@@H]3[C@@H](CO)N(C)c4ccc(-c5ccccc5)cc4[C@@H]32)=N1 (stereo partly drawn) |  | 0.053% (inactive) | 
75 | NS(=O)(=O)c1cccc(NC(=O)COC(=O)Cc2ccc(S(=O)(=O)N3CCOCC3)s2)c1 |  | 0.056% (inactive) | 
76 | COc1ccc(C(=O)N/N=C/c2cc(Br)ccc2O)cc1OC |  | -0.037% (inactive) | 
77 | Cc1cccc(OCC(=O)N(C)c2c(N)n(Cc3ccccc3)c(=O)[nH]c2=O)c1C |  | 0.012% (inactive) | 
78 | Cc1cccc(CN(C)C[C@@H]2Oc3ncc(C#Cc4ccccc4)cc3C(=O)N([C@H](C)CO)C[C@@H]2C)c1 |  |  | activation [2, 4]: -0.035% (inactive)
79 | C[C@H](CO)N1C[C@H](C)[C@H](CN(C)C(=O)Nc2ccc(F)cc2)Oc2ncc(C#Cc3cccc(F)c3)cc2C1=O |  | -0.031% (inactive) | 
80 | CCc1ccccc1OCC(=O)Nc1ccc(N2CCCC2)cc1C |  | 0.109% (inactive) | 
81 | Cc1ccc2[nH]c(=S)n(-c3cccnc3)c(=O)c2c1 |  |  | activation ([2]; at 19.5 µM (top of the series)): -0.035% (inactive)
82 | C[C@@H]1CN([C@@H](C)CO)C(=O)c2cc(NS(C)(=O)=O)ccc2O[C@@H](C)CCCCO[C@@H]1CN(C)Cc1ccccc1 |  | 0.016% (inactive) | 
83 | CSc1ccc(CNCC2CCCO2)cc1 (stereo not drawn) |  | 0.842% (inactive) | 
84 | COc1ccc2c3c(n(C)c2c1)[C@@H](CO)N(C(=O)NC(C)C)CC31CN(C(C)=O)C1 |  | 0.015% (inactive) | 
85 | CC(C)OC(=O)CC(=O)CSc1nc(-c2ccc(F)cc2)cc(-c2ccccc2)c1C#N |  | 0.769% (inactive) | 
86 | COc1ccc2c3c([nH]c2c1)[C@H](CO)N(C(=O)Nc1ccc(F)cc1)CC31CN(CC2CC2)C1 |  | -0.035% (inactive) | 
87 | C[C@H](CO)N1C[C@H](C)[C@H](CN(C)S(=O)(=O)c2ccccc2)Oc2ccc(NS(=O)(=O)c3ccc(Cl)cc3)cc2C1=O |  | 0.163% (inactive) | 
88 | CCCCC(=O)N(C)c1c(CC)nc2c(OCC(=O)c3ccc(F)cc3)cccn12 |  | -0.039% (inactive) | 
89 | CCN(CC)c1ccc(/C=C/C(=O)C2C(=O)C=C(C)OC2=O)cc1 (stereo not drawn) |  | 3.58% (inactive) | 
90 | COc1ccc(/C=C2\CCc3ccccc3C2=O)cc1CN1CCOCC1 |  | 0.231% (inactive) | 
91 | O=C1c2ccc3c4c(ccc(c24)C(=O)N1c1cccc(O)c1)C(=O)N(c1cccc(O)c1)C3=O |  | -0.037% (inactive) | 
92 | O=[N+]([O-])c1ccc(S(=O)(=O)c2ccccc2)nc1 |  | -0.024% (inactive) | 
93 | Cc1noc(C)c1NC(=O)N(C)C[C@@H]1Oc2ccc(NC(=O)C3CC3)cc2CC(=O)N([C@@H](C)CO)C[C@@H]1C |  |  | activation [2, 4]: -0.023% (inactive)
